Laboratory results as given in PMC4995014, “Identification of ABC Transporter Interaction of a Novel Cyanoquinoline Radiotracer and Implications for Tumour Imaging by Positron Emission Tomography” (PLoS ONE, 2016).

Legend:
[1] = biological target: T1, wildtype EGFR (Homo sapiens, UniProt P00533); test: Inhibition of EGFR autophosphorylation in wildtype EGFR expressing A549 and H358 cells; format: cell-based; conditions: read-out: IC50 p-EGFR Y1068 in wildtype EGFR expressing cells
T1 construct: host or cells: H358; A549
T1 sequence (P00533 25-1210): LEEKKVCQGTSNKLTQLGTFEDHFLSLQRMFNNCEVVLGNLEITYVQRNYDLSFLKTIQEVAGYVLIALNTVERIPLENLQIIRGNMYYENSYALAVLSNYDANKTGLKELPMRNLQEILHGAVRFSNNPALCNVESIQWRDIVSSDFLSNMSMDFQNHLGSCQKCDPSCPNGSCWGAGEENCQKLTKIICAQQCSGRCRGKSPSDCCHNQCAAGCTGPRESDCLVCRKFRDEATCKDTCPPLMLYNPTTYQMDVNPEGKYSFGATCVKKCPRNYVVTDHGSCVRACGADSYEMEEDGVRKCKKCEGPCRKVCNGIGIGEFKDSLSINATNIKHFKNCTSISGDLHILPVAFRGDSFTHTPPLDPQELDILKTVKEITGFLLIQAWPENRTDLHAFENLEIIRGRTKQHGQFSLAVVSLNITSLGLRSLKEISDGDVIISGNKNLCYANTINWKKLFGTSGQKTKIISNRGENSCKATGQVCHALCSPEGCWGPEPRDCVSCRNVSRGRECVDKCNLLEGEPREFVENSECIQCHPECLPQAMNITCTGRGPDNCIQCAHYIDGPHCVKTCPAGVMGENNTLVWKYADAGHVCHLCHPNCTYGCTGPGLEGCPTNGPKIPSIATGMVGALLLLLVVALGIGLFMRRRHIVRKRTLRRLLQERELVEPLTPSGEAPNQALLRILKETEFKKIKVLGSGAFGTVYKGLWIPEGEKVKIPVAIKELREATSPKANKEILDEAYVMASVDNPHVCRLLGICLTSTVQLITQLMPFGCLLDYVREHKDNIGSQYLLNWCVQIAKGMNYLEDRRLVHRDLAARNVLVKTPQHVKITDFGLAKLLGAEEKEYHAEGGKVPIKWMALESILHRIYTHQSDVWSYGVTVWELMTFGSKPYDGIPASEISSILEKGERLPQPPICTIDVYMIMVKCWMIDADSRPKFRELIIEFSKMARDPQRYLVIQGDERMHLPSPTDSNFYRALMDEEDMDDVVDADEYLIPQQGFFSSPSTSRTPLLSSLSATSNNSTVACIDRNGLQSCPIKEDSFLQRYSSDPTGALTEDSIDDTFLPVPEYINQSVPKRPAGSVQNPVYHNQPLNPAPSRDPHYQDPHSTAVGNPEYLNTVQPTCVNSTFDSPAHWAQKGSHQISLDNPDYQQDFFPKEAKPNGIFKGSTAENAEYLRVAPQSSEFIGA
Method: (§1) Affinity of the cyanoquinolines for EGFR was established by measuring their inhibition of EGFR autophosphorylation via western blot. Cells were seeded in 6 well plates and following 24 h of growth, were subject to overnight serum starvation. The cells were then treated with increasing concentrations of cyanoquinolines prepared in serum free growth media from a DMSO stock (final DMSO concentration < 1%) for 3 h at 37°C, and stimulated for receptor autophosphorylation by addition of 100 ng/mL of EGF during the last 15 minutes of drug incubation. After 3 h the cells were placed on ice, media removed and then the cells were washed two times with ice cold phosphate buffered saline (PBS). Lysates were analysed by western blot to measure changes to p-EGFR Y1068.
(§2) Cell lysates were prepared by addition of radioimmunoprecipitation assay (RIPA) buffer (50mM Tris-HCl pH 7.2, 150mM NaCl, 1% NP40, 1% sodium deoxycholate, 0.1% sodium dodecyl sulfate) supplemented with 1 x protease and phosphatase inhibitor cocktail (1mM 4-(2-Aminoethyl)benzenesulfonylfluoride hydrochloride, 800 nM aprotinin, 50 μM bestatin, 15 μM E-64, 5μM EDTA, 20 μM leupeptin, 10 μM pepstatin A; Thermo scientific, Waltham, Massachusetts, USA). […] Cellular protein levels were assessed using a bicinchoninic acid (BCA) protein assay kit according to the manufacturer’s instructions (Thermo scientific). […]

[2] = biological target: T2, EGFR L858R (H3255 cells) (Homo sapiens, UniProt P00533, L858R); test: Inhibition of EGFR autophosphorylation (p-EGFR Y1068, western blot) in H3255 cells; format: cell-based; conditions: 3 h incubation, EGF stimulated
T2 construct: host or cells: H3255
Method: as §1
(§3) Cells were collected into a microcentrifuge tube and sonicated for 30 seconds on ice. Cellular protein levels were assessed using a bicinchoninic acid (BCA) protein assay kit according to the manufacturer’s instructions (Thermo scientific). […] Samples were transferred to polyvinylidene difluoride (PVDF) membrane using Trans-Blot Turbo system BIO-RAD (Hercules, California, USA). […] The membranes were then incubated overnight with primary antibody prepared in 1% milk or 1% BSA in TBST. […] Membranes were washed a further three times for 10 minutes with TBST. […]

[3] = tested on: MCF7 cells; test: SRB cell viability assay in MCF7 cells; format: cell-based; conditions: Homo sapiens, 72 h
Method: (§4) Cell viability by the sulforhodamine B (SRB) assay was used to assess cell growth and cytotoxicity of test compounds [29]. Cells were seeded at densities of 3,500 to 5,000 cells per well in 96 well plates overnight and pre-treated for 1 h with ABC transporter modulators: 10 μM fumitremorgin C (FTC; in MCF7MX and MCF7 cells), or 0.3 μM of zosuquidar (in 3T3 and 3T3-MDR1). Cells were then treated with test compounds for 72 h, at 37°C. After drug treatment, cells were fixed by addition of 50% trichloroacetic acid (TCA), and the plates washed and dried to allow staining with 0.4% solution of sulforhodamine B (Sigma) in 1% acetic acid for 30 minutes. Excess dye was removed upon washing with 1% acetic acid. Plates were dried and bound protein was solubilised upon addition of 150 μL of 10 mM Tris base buffer. Absorbance was measured at 540 nm using Thermo Multiskan-Ex plate reader. Cell viability versus compound concentration curves were plotted as a percentage of control cells. The concentration of drug that gave 50% inhibition in cell growth (GI50) was extrapolated from these curves using the sigmoid curve fit with variable slope in Prism (GraphPad Prism version 5.01, GraphPad Software, San Diego California USA). Three to six replicate wells were used for each drug concentration and experiments were carried out on three separate occasions for each compound.

[4] = biological target: T3, EGFR Del E746-A750 (H1650 cells) (Homo sapiens, UniProt P00533, DEL746-750); test: Inhibition of EGFR autophosphorylation (p-EGFR Y1068, western blot) in H1650 cells; format: cell-based; conditions: 3 h incubation, EGF stimulated
T3 construct: endogenous in cells; host or cells: H1650 (ATCC)
T3 sequence (P00533 with tags, fused parts or gaps DEL746-750): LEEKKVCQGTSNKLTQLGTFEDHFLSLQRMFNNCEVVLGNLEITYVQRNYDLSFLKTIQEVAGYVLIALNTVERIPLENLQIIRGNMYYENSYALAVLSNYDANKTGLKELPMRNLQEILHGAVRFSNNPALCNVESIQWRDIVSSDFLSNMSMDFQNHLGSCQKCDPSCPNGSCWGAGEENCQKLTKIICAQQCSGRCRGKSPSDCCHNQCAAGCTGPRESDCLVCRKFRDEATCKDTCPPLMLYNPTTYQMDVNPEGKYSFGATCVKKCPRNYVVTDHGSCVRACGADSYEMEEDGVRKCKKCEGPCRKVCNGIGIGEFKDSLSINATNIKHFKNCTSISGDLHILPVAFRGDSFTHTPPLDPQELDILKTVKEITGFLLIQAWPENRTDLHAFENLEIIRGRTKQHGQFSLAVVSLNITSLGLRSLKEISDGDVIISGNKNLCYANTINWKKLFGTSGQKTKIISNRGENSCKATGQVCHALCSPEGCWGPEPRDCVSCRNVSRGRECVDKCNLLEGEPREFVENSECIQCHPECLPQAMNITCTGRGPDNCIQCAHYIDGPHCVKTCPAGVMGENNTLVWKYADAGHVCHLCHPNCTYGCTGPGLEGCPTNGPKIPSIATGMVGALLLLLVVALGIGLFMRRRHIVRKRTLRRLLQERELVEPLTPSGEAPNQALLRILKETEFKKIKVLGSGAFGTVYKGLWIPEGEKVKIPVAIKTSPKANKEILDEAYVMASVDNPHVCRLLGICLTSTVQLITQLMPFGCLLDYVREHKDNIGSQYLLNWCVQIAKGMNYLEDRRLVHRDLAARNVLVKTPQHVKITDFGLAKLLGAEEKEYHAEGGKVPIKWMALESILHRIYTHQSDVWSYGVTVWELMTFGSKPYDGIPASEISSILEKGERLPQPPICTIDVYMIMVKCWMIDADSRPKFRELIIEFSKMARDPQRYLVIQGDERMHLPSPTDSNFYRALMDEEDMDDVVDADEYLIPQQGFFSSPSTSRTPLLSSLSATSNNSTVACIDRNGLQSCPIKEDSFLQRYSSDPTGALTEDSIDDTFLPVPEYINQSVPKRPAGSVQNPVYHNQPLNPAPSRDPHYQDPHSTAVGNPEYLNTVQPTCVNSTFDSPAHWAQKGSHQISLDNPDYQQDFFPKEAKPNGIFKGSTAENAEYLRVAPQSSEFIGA
Method: as §1, §2

[5] = biological target: T4, EGFR Del E746-A750 (PC9 cells) (Homo sapiens, UniProt P00533, DEL746-750); test: Inhibition of EGFR autophosphorylation (p-EGFR Y1068, western blot) in PC9 cells; format: cell-based; conditions: 3 h incubation, densitometry of western blots
T4 construct: endogenous in cells; host or cells: PC9 (Dr Olivier Pardo, Imperial College London)
T4 sequence (P00533 with tags, fused parts or gaps DEL746-750): as above
Method: as §1, §3

[6] = tested on: EGFR; parameters: method as in PMID 20797871, PMID 24307532; conditions: cell-free; read-out: IC50 for inhibition of cell-free EGFR phosphorylation; cited from earlier work
[7] = biological target: T5, wildtype EGFR (A549 cells) (Homo sapiens, UniProt P00533); test: Inhibition of EGFR autophosphorylation (p-EGFR Y1068, western blot) in A549 cells; format: cell-based; conditions: 3 h incubation, EGF stimulated
T5 construct: host or cells: A549
T5 sequence (P00533 25-1210): as the sequence (P00533 25-1210) above
Method: as §1, §2

[8] = tested on: 3T3 cells; test: SRB cell viability assay in 3T3 cells; format: cell-based; conditions: Mus musculus, NIH3T3, 72 h
Method: as §4

[9] = biological target: T6, wildtype EGFR (H358 cells) (Homo sapiens, UniProt P00533); test: Inhibition of EGFR autophosphorylation (p-EGFR Y1068, western blot) in H358 cells; format: cell-based; conditions: 3 h incubation, EGF stimulated
T6 construct: host or cells: H358
Method: as §1, §2

- IC50 [1]: 600 to 700 nM
- IC50 [2]: 8 nM
- GI50 ([3]; 1 h pre-treatment with 10 μM FTC): 12300 ± 7100 nM
- GI50 ([3]; without FTC): 12000 ± 6930 nM
- IC50 [4]: 40 nM
- IC50 [5]: 22 nM
- IC50 [7]: 700 nM
- IC50 [9]: 600 nM
Compound: CCOc1cc2ncc(C#N)c(Nc3ccc(F)c(Cl)c3)c2cc1NC(=O)/C=C/CNCc1cn(CCF)nn1 [FED6, (2E)-N-{4-[(3-chloro-4-fluorophenyl)amino]-3-cyano-7-ethoxyquinolin-6-yl}-4-({[1-(2-fluoroethyl)-1H-1,2,3-triazol-4-yl]methyl}amino)-but-2-enamide]
- IC50 [6]: 1.8 nM
- GI50 ([8]; pre-treatment with 0.3 μM zosuquidar): 7800 ± 700 nM
- GI50 ([8]; without zosuquidar): 10700 ± 1000 nM
